Patent US20240132458A1, “NLRP3 INFLAMMASOME SMALL-MOLECULE INHIBITOR FOR TREATMENT OF ALZHEIMER'S DISEASE” (AJOU UNIVERSITY INDUSTRY-ACADEMIC COOPERATION FOUNDATION, priority 2021, published 2024)
pIC50: −log10 of the molar value. “Also recorded” adds a separate entry of the source. One block for each compound: values may come before it.

What was measured:
NLRP3, NLRC4 = details: approximate inhibitory concentration, literature; cited from earlier work
NLRP3 [1] = details: approximate inhibitory concentration, literature; cited from earlier work
NLRP3 [2] = target: T1, NLRP3 (Homo sapiens, UniProt Q96P20); assay: Inhibition of NLRP3 by IL-1β secretion level (ELISA); type: cell-based; details: PMA-differentiated THP-1, LPS (10 ng/mL) 4 hours, compound 1 hour, nigericin (10 μM) 1 hour
T1 construct: THP-1 cells (10^5/well) were differentiated with PMA (80 nM, 48 hours) in a 96-well plate; endogenous in cells; host or cells: PMA-differentiated, LPS-primed THP-1 cells
Experimental: THP-1 cells (10^5/well) were differentiated with PMA (80 nM, 48 hours) in a 96-well plate (BD Biosciences). The differentiated macrophages were primed with LPS (10 ng/mL) for 4 hours. Thereafter, the cells were treated with each compound for 1 hour in a serum-free medium, followed by activation of NLRP3 by nigericin for an additional 1 hour. The supernatant was collected and the inhibition of human IL-1β secretion was analyzed using the Human IL-1β Uncoated ELISA Kit (Thermo Fisher Scientific, Inc.). A microplate spectrophotometer system (Molecular Devices) was employed to read absorbance in the plate.

[3] = system: NLRP3 signaling pathway (IL-1β, caspase 1); assay: Western blot of the NLRP3 signaling pathway; type: cell-based, human; details: 10 μM, PMA-differentiated THP-1, LPS/nigericin
Experimental: Cytoplasmic proteins were extracted using NE-PERTM Nuclear and Cytoplasmic Extraction Reagent (Thermo Fisher Scientific, Inc.), and the total-protein was measured using a Bicinchoninic (BCA) assay kit (Sigma-Aldrich Co.). The proteins were separated by SDS-PAGE and transferred to a membrane using a Mini-PROTEAN Tetra Cell and Mini Trans-Blot Electrophoretic Transfer Cell System (Bio-Rad Laboratories, Hercules, CA, USA). The membranes were blocked with skim milk (5%) for 1 hour, and immunoblotted with antibodies against NLRP3, IL-1β, mature IL-1β (Cell Signaling Technology Inc., Danvers, MA, USA), caspase 1 and β-actin (Santa Cruz Biotechnology Inc., Dallas, TX, USA) at 4° C. overnight. After washing with PBS supplemented with 0.1% of Tween 20, the membranes were treated with a peroxidase-conjugated anti-rabbit or anti-mouse IgG antibody (1:1,000) for 2 hours at room temperature. The SuperSignal West Pico ECL solution (Thermo Fisher Scientific, Inc.) was used to detect protein bands that were visualized on a ChemiDocm Touch Imaging System (Bio-Rad Laboratories).

Microsomal stability = type: in vitro ADME, human; details: for Microsomal stability (% at 30 min): Human liver microsomes 0.5 mg/mL, 1 μM compound, 37° C.
Experimental: Stock solutions of NIC7 and NIC7w were prepared at a concentration of 10 mM in DMSO, and were diluted to a concentration of 100 μM with 100% methanol as a working solution. These NIC7 and NIC7w solutions were diluted to a concentration of 1 μM with potassium phosphate buffer (pH 7.4), and then each solution was incubated with 0.5 mg/mL liver microsomes (human) at 37° C. for 5 minutes. The reaction was initiated by adding a NADPH-generating system (3.3 mM glucose-6-phosphate (G6P), 1.3 mM β-NADP^+, 3.3 mM MgCl2, and 0.4 U/mL glucose-6-phosphate dehydrogenase (G6PD)) at 37° C. The reaction was stopped at 0 and 30 minutes using cold acetonitrile containing carbamazepine as an internal standard at 20 ng/mL. After vortexing and centrifugation, the supernatant was analyzed with liquid chromatography with tandem mass spectrometry (LC-MS/MS). All microsomal assays were performed in duplicate.
After sample preparation, 0.1 mL acetonitrile containing 20 ng/mL internal standard was added to a 50 μL aliquot of each biological sample. After vortexing and centrifugation at 12,000 rpm for 10 minutes, 10 μL of the supernatant was analyzed with LC-MS/MS.
In the LC system, a reversed-phase C18 column (BEH C18, 2.1 mm×100 mm i.d., 1.7 μm; Waters, Ireland) was maintained at 4° C. The composition of the mobile phase was changed from 80% of 0.1% formic acid in water to 80% of 0.1% formic acid in acetonitrile for 3 minutes, and then switched to 80% of 0.1% formic acid in water for 3.1 minutes, and maintained at 0.5 at mL/min for 5 minutes. The analytes were monitored on an API5500 triple quadrupole mass spectrometer MS (AB Sciex, Foster City, CA) equipped with a turbo ion spray interface for electrospray ionization and operated in positive ion mode at 5.5 kV and 500° C. at 50 L/min of atomizing gas flow, 50 L/min of turbo ion-spray gas flow, 20 L/min of curtain gas flow, 5.5 kV of ring voltage and 5 Torr of collision gas (nitrogen) pressure. The mass transitions for NIC7, NIC7w and the internal standard were m/z 481.1→165.0 (collision energy, 45 eV), 453.1→165.0 (41.0 eV) and 236.9→194.0 (29 eV), respectively, in the multiple reaction monitoring mode.

CYP1A2 = target: T2, CYP1A2 (Homo sapiens, UniProt P05177); assay: Cytochrome P450 inhibition; type: in vitro ADME; details: probe phenacetin (O-deethylation), pooled human liver microsomes 0.25 mg/mL, read-out: CYP inhibition (% at 10 μM) 1A2
T2 construct: pooled human liver microsomes were assayed at 0.25 mg/mL concentration; from tissue; host or cells: pooled human liver microsomes
T2 sequence (P05177 1-516): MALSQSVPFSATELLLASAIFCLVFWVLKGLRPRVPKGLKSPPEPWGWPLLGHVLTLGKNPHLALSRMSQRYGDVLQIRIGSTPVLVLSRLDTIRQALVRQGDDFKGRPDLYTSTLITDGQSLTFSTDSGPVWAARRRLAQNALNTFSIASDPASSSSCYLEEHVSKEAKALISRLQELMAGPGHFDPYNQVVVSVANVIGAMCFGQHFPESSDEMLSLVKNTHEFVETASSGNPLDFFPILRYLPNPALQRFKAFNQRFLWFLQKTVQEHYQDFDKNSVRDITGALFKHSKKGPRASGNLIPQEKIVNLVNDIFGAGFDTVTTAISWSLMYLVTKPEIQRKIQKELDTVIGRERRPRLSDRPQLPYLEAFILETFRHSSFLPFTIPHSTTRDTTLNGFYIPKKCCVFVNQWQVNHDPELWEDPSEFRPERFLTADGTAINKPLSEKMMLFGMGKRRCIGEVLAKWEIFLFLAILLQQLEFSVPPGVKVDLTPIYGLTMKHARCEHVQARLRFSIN
Experimental: (§1) The inhibitory effects of NIC7 and NIC7w on the metabolism of the five major P450 probe substrates were evaluated using a previously reported method (S. Seino, Diabetologia 55, 2096-2108 (2012)) with minor modifications. A cocktail of substrates (phenacetin O-deethylase, tolbutamide 4-hydroxylase, mephenytoin 4-hydroxylase, dextromethorphan O-demethylase, and midazolam 1′-hydroxylase) was used for five major P450 enzymes, CYP1A2, CYP2C9, CYP2C19, CYP2D6, and CYP3A4, respectively. NIC7 and NIC7w were prepared at a concentration of 10 mM in DMSO and dissolved in methanol at a concentration of 1 mM. In all experiments, the final concentration of an organic solvent (methanol) for cocktail incubation was set at 1.0% (v/v). Both NIC7 and NIC7w were used at 10 μM, and pooled human liver microsomes were assayed at 0.25 mg/mL concentration. The substrate cocktail solution was incubated with the microsomes for 5 min at 37° C. The reaction was initiated by adding an NADPH-generating system (the same as described in Examples 1-5) at 37° C. and 1300 rpm. The reaction was stopped at 10 min by the addition of cold acetonitrile containing carbamazepine as an internal standard at 20 ng/mL. After vortexing and centrifugation, the supernatant was analyzed with LC-MS/MS. All microsomal incubations were performed in triplicate.

CYP2C19 = target: T3, CYP2C19 (Homo sapiens, UniProt P33261); assay: Cytochrome P450 inhibition; type: in vitro ADME; details: probe mephenytoin (4-hydroxylation), pooled human liver microsomes 0.25 mg/mL, read-out: CYP inhibition (% at 10 μM) 2C19
T3 construct: pooled human liver microsomes were assayed at 0.25 mg/mL concentration; from tissue; host or cells: pooled human liver microsomes
Experimental: as §1

CYP2C9 = target: T4, CYP2C9 (Homo sapiens, UniProt P11712); assay: Cytochrome P450 inhibition; type: in vitro ADME; details: for CYP enzyme selectivity of inhibition: five P450 enzymes, 10 μM; for inhibition at 10 min, 10 µM: probe tolbutamide (4-hydroxylation), pooled human liver microsomes 0.25 mg/mL, tolbutamide, read-out: CYP inhibition (% at 10 μM) 2C9
T4 construct: pooled human liver microsomes were assayed at 0.25 mg/mL concentration; from tissue; host or cells: pooled human liver microsomes
Experimental: as §1

CYP2D6 = target: T5, CYP2D6 (Homo sapiens, UniProt P10635); assay: Cytochrome P450 inhibition; type: in vitro ADME; details: probe dextromethorphan (O-demethylation), pooled human liver microsomes 0.25 mg/mL, read-out: CYP inhibition (% at 10 μM) 2D6
T5 construct: pooled human liver microsomes were assayed at 0.25 mg/mL concentration; from tissue; host or cells: pooled human liver microsomes
Experimental: as §1

CYP3A4 = target: T6, CYP3A4 (Homo sapiens, UniProt P08684); assay: Cytochrome P450 inhibition; type: in vitro ADME; details: probe midazolam (1′-hydroxylation), pooled human liver microsomes 0.25 mg/mL, read-out: CYP inhibition (% at 10 μM) 3A4
T6 construct: pooled human liver microsomes were assayed at 0.25 mg/mL concentration; from tissue; host or cells: pooled human liver microsomes
Experimental: as §1

[4] = system: AD model mice (Aβ1-42 injected); assay: Y-maze test in AD model (spatial working memory); type: in vivo, C57BL/6 mice; details: 3 days/week, vs vehicle-treated and untreated mice
Experimental: (§2) 6-week-old male C57BL/6 mice (19 to 22 g) were used, and 5 mice per cage were bred in a feedlot. To create an AD model, experimental animals were administered isoflurane by inhalation, and then injected with Aβ1-42 (5 μL) using a Hamilton microsyringe with a 26-gauge needle. The AD model mice were trained for 20 minutes/mouse for 2 days before the experimental procedure, and then subjected to Y-maze tests and novel object recognition tests (for cognitive evaluation). Behavioral evaluation was performed 7 days after Aβ1-42 injection. The animals were subdivided into AD, NIC7-treated, vehicle (DMSO)-treated, donepezil-treated (positive control) and normal (no-disease) groups. Cognitive evaluation was performed on days 7, 14, 21 and 28 after injection.
The alteration in spatial cognitive behavior was assessed using a Y-maze apparatus with three horizontal identical arms (35 cm long×15 cm high×5 cm wide) symmetrically arranged at 120° to each other. The evaluation was performed in the Y-maze test 7 days after Aβ injection. After introduction into the Y-maze, each animal was allowed to move freely for 2 minutes and then measured for 5 minutes. The test subjects tended to enter an arm different from the arm they had previously visited. The number of arm entries and triads was recorded to calculate the percentage of alternation. […]

[5] = system: AD model mice (Aβ1-42 injected); assay: Novel object recognition test in AD model; type: in vivo, C57BL/6 mice; details: vs vehicle-treated or untreated mice
Experimental: as §2
A novel object recognition test was performed in an open field box containing two identical objects. Animals were first familiarized with these identical objects for 2 minutes, and then one of the objects was replaced with a novel object, followed by reading for 5 minutes. The time spent with an identical object (tA) and the time spent with a novel object (tB) were calculated, and the recognition index ratio was calculated via the formula (tB/(tA+tB))×100.

Body weight in AD model = type: in vivo, C57BL/6 mice; details: NIC7 100 nmol/g intraperitoneally; compared to the untreated mice
Experimental: as §2

[6] = NIC7 100 nmol/g intraperitoneally
[7] = donepezil 1 mg/kg intraperitoneally

T1 sequence (Q96P20 whole entry): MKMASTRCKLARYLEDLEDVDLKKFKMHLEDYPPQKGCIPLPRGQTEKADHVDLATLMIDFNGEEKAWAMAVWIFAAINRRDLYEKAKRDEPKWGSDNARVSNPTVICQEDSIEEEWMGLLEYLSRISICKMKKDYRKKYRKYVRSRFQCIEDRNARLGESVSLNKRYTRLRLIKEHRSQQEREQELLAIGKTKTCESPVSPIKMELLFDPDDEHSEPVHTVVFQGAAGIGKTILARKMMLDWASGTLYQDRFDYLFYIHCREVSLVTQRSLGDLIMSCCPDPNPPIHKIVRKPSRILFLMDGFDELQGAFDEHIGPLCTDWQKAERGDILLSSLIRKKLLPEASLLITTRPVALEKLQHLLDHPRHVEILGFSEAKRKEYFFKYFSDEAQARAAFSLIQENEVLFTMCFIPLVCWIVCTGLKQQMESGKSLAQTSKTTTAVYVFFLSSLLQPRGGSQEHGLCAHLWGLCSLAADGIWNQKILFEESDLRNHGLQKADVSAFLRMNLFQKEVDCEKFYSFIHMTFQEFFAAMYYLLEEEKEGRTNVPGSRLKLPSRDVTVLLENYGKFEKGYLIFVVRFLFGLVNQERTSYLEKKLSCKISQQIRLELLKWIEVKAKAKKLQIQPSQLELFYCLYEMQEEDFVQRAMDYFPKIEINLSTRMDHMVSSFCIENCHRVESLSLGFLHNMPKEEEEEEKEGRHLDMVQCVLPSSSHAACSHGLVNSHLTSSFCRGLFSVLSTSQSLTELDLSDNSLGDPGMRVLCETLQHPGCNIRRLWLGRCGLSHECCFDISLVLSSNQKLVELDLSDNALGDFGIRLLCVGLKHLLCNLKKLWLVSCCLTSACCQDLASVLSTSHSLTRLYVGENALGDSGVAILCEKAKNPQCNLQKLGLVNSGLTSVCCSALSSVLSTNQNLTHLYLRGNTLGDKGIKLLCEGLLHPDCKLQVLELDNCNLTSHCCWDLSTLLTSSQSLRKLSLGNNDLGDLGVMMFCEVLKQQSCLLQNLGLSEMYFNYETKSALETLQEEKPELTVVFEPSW
T4 sequence (P11712 whole entry): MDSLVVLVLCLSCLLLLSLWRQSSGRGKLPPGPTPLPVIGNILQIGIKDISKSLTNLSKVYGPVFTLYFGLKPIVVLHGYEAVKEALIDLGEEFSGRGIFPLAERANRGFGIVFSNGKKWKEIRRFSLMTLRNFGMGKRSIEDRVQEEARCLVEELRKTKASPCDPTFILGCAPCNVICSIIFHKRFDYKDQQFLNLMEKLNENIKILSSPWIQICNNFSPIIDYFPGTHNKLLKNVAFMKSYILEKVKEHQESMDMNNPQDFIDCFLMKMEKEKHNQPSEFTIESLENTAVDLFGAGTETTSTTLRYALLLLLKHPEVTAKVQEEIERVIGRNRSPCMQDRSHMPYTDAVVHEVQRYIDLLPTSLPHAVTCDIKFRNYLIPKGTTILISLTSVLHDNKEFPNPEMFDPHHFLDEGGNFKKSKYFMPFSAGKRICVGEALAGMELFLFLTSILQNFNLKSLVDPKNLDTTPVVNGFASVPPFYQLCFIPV
T5 sequence (P10635 whole entry): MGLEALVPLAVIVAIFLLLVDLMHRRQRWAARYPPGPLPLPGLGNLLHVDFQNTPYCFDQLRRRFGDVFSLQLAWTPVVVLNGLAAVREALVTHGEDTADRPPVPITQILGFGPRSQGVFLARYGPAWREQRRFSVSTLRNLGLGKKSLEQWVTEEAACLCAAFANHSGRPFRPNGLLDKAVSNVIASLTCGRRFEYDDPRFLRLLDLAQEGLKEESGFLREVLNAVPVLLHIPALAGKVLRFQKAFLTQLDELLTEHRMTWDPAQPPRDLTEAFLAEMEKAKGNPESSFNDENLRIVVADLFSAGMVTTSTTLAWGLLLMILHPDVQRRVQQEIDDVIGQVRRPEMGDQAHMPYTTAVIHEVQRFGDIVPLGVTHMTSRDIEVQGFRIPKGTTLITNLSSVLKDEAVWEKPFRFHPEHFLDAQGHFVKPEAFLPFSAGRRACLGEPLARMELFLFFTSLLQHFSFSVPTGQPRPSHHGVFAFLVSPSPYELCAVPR
T6 sequence (P08684 whole entry): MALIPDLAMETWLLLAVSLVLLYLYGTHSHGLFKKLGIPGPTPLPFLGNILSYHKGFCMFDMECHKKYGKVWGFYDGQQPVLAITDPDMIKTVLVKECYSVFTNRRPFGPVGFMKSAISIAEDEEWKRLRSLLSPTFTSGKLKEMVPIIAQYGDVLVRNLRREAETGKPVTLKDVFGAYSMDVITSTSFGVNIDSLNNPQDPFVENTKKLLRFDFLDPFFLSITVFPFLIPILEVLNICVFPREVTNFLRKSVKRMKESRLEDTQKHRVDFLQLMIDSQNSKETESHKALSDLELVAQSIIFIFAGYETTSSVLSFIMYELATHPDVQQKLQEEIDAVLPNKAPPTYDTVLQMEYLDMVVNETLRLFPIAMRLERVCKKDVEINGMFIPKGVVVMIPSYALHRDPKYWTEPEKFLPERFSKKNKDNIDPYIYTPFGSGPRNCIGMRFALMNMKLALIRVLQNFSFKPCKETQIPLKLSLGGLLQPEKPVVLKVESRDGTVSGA
T3 sequence (P33261 whole entry): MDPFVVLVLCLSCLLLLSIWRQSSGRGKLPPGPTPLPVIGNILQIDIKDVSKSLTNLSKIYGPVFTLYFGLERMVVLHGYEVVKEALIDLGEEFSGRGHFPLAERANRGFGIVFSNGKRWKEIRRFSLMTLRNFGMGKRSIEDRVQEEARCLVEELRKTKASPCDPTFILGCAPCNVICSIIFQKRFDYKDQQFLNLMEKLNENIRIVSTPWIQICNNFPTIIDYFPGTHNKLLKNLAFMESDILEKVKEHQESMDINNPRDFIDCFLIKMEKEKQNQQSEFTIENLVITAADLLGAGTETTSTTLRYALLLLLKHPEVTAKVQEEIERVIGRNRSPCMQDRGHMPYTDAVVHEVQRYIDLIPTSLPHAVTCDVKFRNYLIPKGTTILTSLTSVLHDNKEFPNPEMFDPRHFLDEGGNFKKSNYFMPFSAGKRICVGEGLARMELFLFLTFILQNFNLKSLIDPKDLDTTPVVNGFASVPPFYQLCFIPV

Compound: CC1CC(=O)c2s/c(=N\C3CCCCC3)oc2C1 (centres unmarked) [BOT-4-one]
pIC50 (NLRP3, NLRC4): 5.89 to 6.23

Compound: Cc1ccc(S(=O)(=O)/C=C/C#N)cc1 [Bay 11-7082]
pIC50 (NLRP3, NLRC4): ~5.30

Compound: O=C(O)c1ccc(/C=C2/SC(=S)N(Cc3cccc(C(F)(F)F)c3)C2=O)cc1 [CY-09]
pIC50 (NLRP3 [1]): ~5.30

Compound: O=[N+]([O-])/C=C/c1ccc2c(c1)OCO2 [MNS]
pIC50 (NLRP3 [1]): ~5.70

Microsomal stability (% at 30 min) (Microsomal stability): Human: 19.7%
inhibition at 10 min, 10 µM (CYP1A2): < 1%
inhibition at 10 min, 10 µM (CYP2C19): < 1%
inhibition at 10 min, 10 µM (CYP2C9): 34.2%
inhibition at 10 min, 10 µM (CYP2D6): 9.8%
inhibition at 10 min, 10 µM (CYP3A4): < 1%
Compound: CC(=O)c1cccc(NC(=O)Nc2ccc3sc(NS(=O)(=O)c4ccc(C)cc4)nc3c2)c1 [NIC7, N-(5-(3-(3-acetylphenyl)ureido)benzo[d]thiazol-2-yl)-4-methylbenzenesulfonamide]
inhibition of IL-1β secretion caused by NLRP3 (NLRP3 [2]): highest potency; also recorded: significant inhibition
inhibition of IL-1β and caspase 1 (Western blot) [3]: inhibition
metabolic stability versus positive control compound (Microsomal stability): better half-life and stability than a positive control compound
CYP enzyme selectivity of inhibition (CYP2C9): acted mainly on CYP2C9 enzyme and hardly acted on other types of CYP enzymes
Y-maze test, spatial working memory [4, 6]: spent more time in the novel arm
recognition index rate (novel object recognition test) [5, 6]: better
body weight (Body weight in AD model): significantly increased

Microsomal stability (% at 30 min) (Microsomal stability): Human: 49.5%
increase of amount of drug remaining after 30 minutes of metabolism compared to NIC7 (Microsomal stability; human liver microsomes): 29.8%
inhibition at 10 min, 10 µM (CYP1A2): < 1%
inhibition at 10 min, 10 µM (CYP2C19): 15.4%
inhibition at 10 min, 10 µM (CYP2C9): 39.4%
inhibition at 10 min, 10 µM (CYP2D6): 9.1%
inhibition at 10 min, 10 µM (CYP3A4): < 1%
Compound: Cc1ccc(S(=O)(=O)Nc2nc3cc(NC(=O)NCc4ccccc4)ccc3s2)cc1 [NIC7w, N-(5-(3-benzylureido)benzo[d]thiazol-2-yl)-4-methylbenzenesulfonamide]
inhibition of IL-1β secretion caused by NLRP3 (NLRP3 [2]): most potent inhibition; also recorded: in a dose-dependent manner, more strongly and significantly than NIC7
inhibition of IL-1β and caspase 1 (Western blot) [3]: inhibition
metabolic stability versus positive control compound (Microsomal stability): better half-life and stability than a positive control compound
CYP enzyme selectivity of inhibition (CYP2C9): acted mainly on CYP2C9 enzyme and hardly acted on other types of CYP enzymes

Compound: CS(=O)(=O)CCC#N [OLT1177]
pIC50 (NLRP3 [1]): ~6.00

Compound: COc1cc2c(cc1OC)C(=O)C(CC1CCN(Cc3ccccc3)CC1)C2 (centres unmarked) [donepezil, reference compound]
Y-maze test, spatial working memory [4, 7]: spent more time in the novel arm
recognition index rate (novel object recognition test) [5, 7]: better

Compound: NBC6
pIC50 (NLRP3 [1]): ~6.24
